From patent US9827219B2, “Compositions and methods for lowering levels of high-sensitivity C-reactive protein (HS-CRP) in a subject” (priority 2012, dated 2017)

System: hsCRP
Test: MARINE study, hsCRP (also by concomitant statin use)
Type: in vivo, human
Source text: Parameters (a)-(y) can be measured in accordance with any clinically acceptable methodology. For example, triglycerides, total cholesterol, HDL-C and fasting blood sugar can be sample from serum and analyzed using standard photometry techniques. VLDL-TG, LDL-C and VLDL-C can be calculated or determined using serum lipoprotein fractionation by preparative ultracentrifugation and subsequent quantitative analysis by refractometry or by analytic ultracentrifugal methodology. Apo A1, Apo B and hsCRP can be determined from serum using standard nephelometry techniques. Lipoprotein (a) can be determined from serum using standard turbidimetric immunoassay techniques. LDL particle number and particle size can be determined using nuclear magnetic resonance (NMR) spectrometry. Remnants lipoproteins and LDL-phospholipase A2 can be determined from EDTA plasma or serum and serum, respectively, using enzymatic immunoseparation techniques. Oxidized LDL, intercellular adhesion molecule-1 and interleukin-2 levels can be determined from serum using standard enzyme immunoassay techniques. These techniques are described in detail in standard textbooks, for example Tietz Fundamentals of Clinical Chemistry, 6th Ed. (Burtis, Ashwood and Borter Eds.), WB Saunders Company.
A multi-center, placebo-controlled randomized, double-blind, 12-week study with an open-label extension was performed to evaluate the efficacy and safety of AMR101 in patients with fasting triglyceride levels ≧500 mg/dL. The primary objective of the study was to determine the efficacy of AMR101 2 g daily and 4 g daily, compared to placebo, in lowering fasting TG levels in patients with fasting TG levels ≧500 mg/dL and ≦1500 mg/dL (≧5.65 mmol/L and ≦16.94 mmol/L).
The population for this study was men and women (women of childbearing potential will need to be on contraception or practice abstinence)>18 years of age with a body mass index ≦45 kg/m^2 who were not on lipid-altering therapy or were currently on lipid-altering therapy. Patients currently on statin therapy (with or without ezetimibe) were evaluated by the investigator as to whether this therapy can be safely discontinued at screening, or if it should be continued. If statin therapy (with or without ezetimibe) was to be continued, dose(s) must have been stable for ≧4 weeks prior to randomization. Patients taking non-statin, lipid-altering medications (niacin >200 mg/day, fibrates, fish oil, other products containing omega-3 fatty acids, or other herbal products or dietary supplements with potential lipid-altering effects), either alone or in combination with statin therapy (with or without ezetimibe), must have been able to safely discontinue non-statin, lipid-altering therapy at screening.
Approximately 240 patients were randomized at approximately 50 centers in North America, South America, Central America, Europe, India, and South Africa. The study was a 58- to 60-week, Phase 3, multi-center study consisting of 3 study periods: (1) A 6- to 8-week screening period that included a diet and lifestyle stabilization and washout period and a TG qualifying period; (2) A 12-week, double-blind, randomized, placebo-controlled treatment period; and (3) A 40-week, open-label, extension period.
After confirmation of qualifying fasting TG values, eligible patients entered a 12-week, randomized, double-blind treatment period. At Visit 4 (Week 0), patients were randomly assigned to 1 of the following treatment groups: • AMR101 2 g daily, • AMR101 4 g daily, or • Placebo.
Eligible patients were randomly assigned at Visit 4 (Week 0) to receive orally AMR101 2 g daily, AMR101 4 g daily, or placebo for the 12-week double-blind treatment period. AMR101 was provided in 1 g liquid-filled, oblong, gelatin capsules. The matching placebo capsule was filled with light liquid paraffin and contained 0 g of AMR101. […]

SMILES: CC/C=C\C/C=C\C/C=C\C/C=C\C/C=C\CCCC(=O)OCC [AMR101, all-cis eicosa-5,8,11,14,17-pentaenoic acid ethyl ester]
- hsCRP end-of-treatment value, median (MARINE ITT, 2 g/day, week 12): 2.4 mg/L
- hsCRP change from baseline (median) (MARINE ITT, 4 g/day, week 12): −2.5%
- hsCRP end-of-treatment value, median (MARINE ITT, 4 g/day, week 12): 2.2 mg/L
- hsCRP median placebo-adjusted % change from baseline (MARINE, no statin, AMR101 2 g/day vs placebo, P 0.8297): −2.7%
- hsCRP change from baseline, median % (MARINE, no statin, AMR101 2 g/day, week 12): 31.7%
- hsCRP end-of-treatment value, median (MARINE, no statin, AMR101 2 g/day, week 12, baseline 2.2): 2.5 mg/L
- hsCRP median placebo-adjusted % change from baseline (MARINE, no statin, AMR101 4 g/day vs placebo, P 0.0311): −27.4%
- hsCRP change from baseline, median % (MARINE, no statin, AMR101 4 g/day, week 12): 0.0%
- hsCRP end-of-treatment value, median (MARINE, no statin, AMR101 4 g/day, week 12, baseline 2.2): 2.2 mg/L
- hsCRP median placebo-adjusted % change from baseline (MARINE, statin, AMR101 2 g/day vs placebo, P 0.1707): −33.2%
- hsCRP change from baseline, median % (MARINE, statin, AMR101 2 g/day, week 12): 11.7%
- hsCRP end-of-treatment value, median (MARINE, statin, AMR101 2 g/day, week 12, baseline 1.5): 1.6 mg/L
- hsCRP median placebo-adjusted % change from baseline (MARINE, statin, AMR101 4 g/day vs placebo, P 0.0098): −67.9%
- hsCRP change from baseline, median % (MARINE, statin, AMR101 4 g/day, week 12): −30.6%
- hsCRP end-of-treatment value, median (MARINE, statin, AMR101 4 g/day, week 12, baseline 1.9): 1.3 mg/L
- hsCRP median placebo-adjusted change from baseline (MARINE, 2 g/day, with concomitant statin therapy): statistically insignificant
- hsCRP median placebo-adjusted change from baseline (MARINE, 2 g/day, without concomitant statin therapy): statistically insignificant
- hsCRP median placebo-adjusted change from baseline (MARINE, 4 g/day, with concomitant statin therapy): −67.9%
- hsCRP median placebo-adjusted change from baseline (MARINE, 4 g/day, without concomitant statin therapy): −27.4%
